The target of the experiment is T1, human 11β-HSD1 (Homo sapiens, UniProt P28845).
T1 construct: host or cells: microsome fraction
The experiment is described as follows: Enzymatic 11beta-HSD1 test (SPA-based detection). Format: biochemical. As to conditions: human 11β-HSD1 microsome fraction, [1,2-3H]-cortisone, NADPH, 37° C. 1 hour. In a few lines: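 Scintillation proximity detection: anti-cortisol antibody on SPA-PVT beads captured tritiated cortisol. The stop mix also contained 0.01 mM SSR110887 and was equilibrated 1 h at room temperature before counting. Cortisol came from [1,2-3H]-cortisone ([…]), turned over by human 11β-HSD1 microsomal protein (0.2 µg) with 0.25 mM NADPH in HEPES buffer, 37 °C, 1 h.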

SMILES strings stand for the structures. pIC50: −log10 of the molar value.

T1 sequence (P28845 whole entry): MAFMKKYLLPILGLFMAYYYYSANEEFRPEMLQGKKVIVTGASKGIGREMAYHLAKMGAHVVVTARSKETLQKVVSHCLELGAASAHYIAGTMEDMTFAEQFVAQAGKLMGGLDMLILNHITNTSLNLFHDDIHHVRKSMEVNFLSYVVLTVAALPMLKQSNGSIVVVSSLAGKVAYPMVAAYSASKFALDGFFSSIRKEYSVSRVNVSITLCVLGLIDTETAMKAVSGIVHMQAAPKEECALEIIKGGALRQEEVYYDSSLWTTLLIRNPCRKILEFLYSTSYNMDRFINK

Regarding `CC1(C)OC(N[C@@H](CCO)c2ccccc2F)=NS(=O)(=O)C1c1ccc(CCCN)cc1` (stereo partly shown) [Example 106, (5)-3-{5-[4-(3-Amino-propyl)-phenyl]-6,6-dimethyl-4,4-dioxo-5,6-dihydro-4H-4lambda6-[1,4,3]oxathiazin-2-ylamino}-3-(2-fluorophenyl)-propan-1-ol], the negative-log IC50 (pIC50) is 7.59.

With `C[C@H](NC1=NS(=O)(=O)C(c2ccc(-c3ccccc3)cc2)C(C)(C)O1)c1ccccc1F` (stereo partly drawn) [Compound 52, (5-Biphenyl-4-yl-6,6-dimethyl-4,4-dioxo-5,6-dihydro-4H-4lambda6-[1,4,3]oxathiazin-2-yl)-[(S)-1-(2-fluorophenyl)ethyl]amine], the negative-log IC50 (pIC50) was 7.19.

`CC1(C)OC(N[C@@H](CCO)c2ccccc2F)=NS(=O)(=O)C1c1ccc(-c2csc(N3CCOCC3)n2)cc1` (stereo partly drawn) [Example 118, (S)-3-{6,6-Dimethyl-5-[4-(2-morpholin-4-yl-thiazol-4-yl)-phenyl]-4,4-dioxo-5,6-dihydro-4H-4lambda6-[1,4,3]oxathiazin-2-ylamino}-3-(2-fluorophenyl)-propan-1-ol] had a negative logarithm of the IC50 (pIC50) of 8.10.

In turn, `CC1(C)OC(NC2CCCCC2)=NS(=O)(=O)C1c1cccc(Br)c1` (stereo not shown) [Example 13, [5-(3-Bromophenyl)-6,6-dimethyl-4,4-dioxo-5,6-dihydro-4H-4lambda6-[1,4,3]oxathiazin-2-yl]-cyclohexyl-amine] showed a negative-log IC50 (pIC50) of 7.33.

`CC1(C)OC(N[C@@H](CCO)c2ccccc2F)=NS(=O)(=O)C1c1cccc(-c2ccccc2)c1` (stereo partly drawn) [Example 67, (S)-3-(5-Biphenyl-3-yl-6,6-dimethyl-4,4-dioxo-5,6-dihydro-4H-4lambda6-[1,4,3]oxathiazin-2-ylamino)-3-(2-fluorophenyl)-propan-1-ol] had a negative logarithm of the IC50 (pIC50) of 7.82.

As for `CC1(C)OC(N[C@@H](CCO)c2ccc(F)cc2F)=NS(=O)(=O)C1c1ccc(-c2ccccc2)cc1` (stereo partly drawn) [Example 97, (S)-3-(5-Biphenyl-4-yl-6,6-dimethyl-4,4-dioxo-5,6-dihydro-4H-4lambda6-[1,4,3]oxathiazin-2-ylamino)-3-(2,4-difluorophenyl)-propan-1-ol], the negative-log IC50 (pIC50) was 7.80.

For `CC1(C)OC(N[C@@H](CCO)c2ccccc2F)=NS(=O)(=O)C1c1ccc(-c2cnc(N3CCNCC3)nc2)cc1` (stereo partly drawn) [Example 169, (S)-3-{6,6-Dimethyl-4,4-dioxo-5-[4-(2-piperazin-1-yl-pyrimidin-5-yl)-phenyl]-5,6-dihydro-4H-4lambda6-[1,4,3]oxathiazin-2-ylamino}-3-(2-fluoro-phenyl)-propan-1-ol], the pIC50 was 8.70.

With `CC1(C)OC(N[C@@H](CCO)c2ccccc2F)=NS(=O)(=O)[C@@H]1c1ccc(-c2ccnc(C#N)c2)cc1` [Example 185, 4-(4-{(R)-2-[(S)-1-(2-fluorophenyl)-3-hydroxy-propylamino]-6,6-dimethyl-4,4-dioxo-5,6-dihydro-4H-4lambda6-[1,4,3]oxathiazin-5-yl}-phenyl)-pyridine-2-carbonitrile], the pIC50 was 8.40.

Compound `CC1(C)OC(N[C@@H](CCO)c2ccccc2)=NS(=O)(=O)C1c1cccc(-c2ccccc2)c1` (stereo partly drawn) [Example 8, (S)-3-(5-Biphenyl-3-yl-6,6-dimethyl-4,4-dioxo-5,6-dihydro-4H-4lambda6-[1,4,3]oxathiazin-2-ylamino)-3-phenyl-propan-1-ol] gave a pIC50 of 7.66.

In turn, `CC(C)(C)c1ccc(C2C(C)(C)OC(N[C@@H](CCO)c3ccccc3F)=NS2(=O)=O)cc1` (single isomer, unassigned) [Example 85] showed a negative logarithm of the IC50 (pIC50) of 8.05.

On to `C[C@H](NC1=NS(=O)(=O)[C@H](c2ccc(-c3cccc(C(N)=O)c3)cc2)C(C)(C)O1)c1ccccc1F` [Example 175, 4′-{(R)-2-[(S)-1-(2-fluorophenyl)-ethylamino]-6,6-dimethyl-4,4-dioxo-5,6-dihydro-4H-4lambda6-[1,4,3]oxathiazin-5-yl}-biphenyl-3-carboxamide], for which the negative logarithm of the IC50 (pIC50) is 7.70.

`CC1(C)OC(N[C@@H](CCO)c2ccccc2F)=NS(=O)(=O)[C@H]1c1ccc(-c2ccnc(C(N)=O)c2)cc1` [Example 188, 4-(4-{(S)-2-[(S)-1-(2-fluorophenyl)-3-hydroxy-propylamino]-6,6-dimethyl-4,4-dioxo-5,6-dihydro-4H-4lambda6-[1,4,3]oxathiazin-5-yl}-phenyl)-pyridine-2-carboxamide] gave a pIC50 of 8.15.

Take `CC1(C)OC(N[C@@H](CCO)c2ccccc2F)=NS(=O)(=O)C1c1ccc(NC2CCN(C3CC3)CC2)cc1` (stereo partly drawn) [Example 142, (S)-3-{5-[4-(1-Cyclopropyl-piperidin-4-ylamino)-phenyl]-6,6-dimethyl-4,4-dioxo-5,6-dihydro-4H-4lambda6-[1,4,3]oxathiazin-2-ylamino}-3-(2-fluoro-phenyl)-propan-1-ol]: the pIC50 is 7.19.

Turning to `O=S1(=O)N=C(N[C@@H](CCO)c2ccccc2F)OC2(CCC2)C1c1ccc(-c2ccccc2)cc1` (stereo partly drawn) [Example 77, (S)-3-(9-Biphenyl-4-yl-8,8-dioxo-5-oxa-8lambda6-thia-7-aza-spiro[3.5]non-6-en-6-ylamino)-3-(2-fluorophenyl)-propan-1-ol], the pIC50 is 7.59.

As to `COc1ncc(-c2ccc(C3C(C)(C)OC(N[C@@H](CCO)c4ccccc4F)=NS3(=O)=O)cc2)cn1` (stereo partly drawn) [Example 139, (S)-3-(2-fluorophenyl)-3-{5-[4-(2-methoxy-pyrimidin-5-yl)-phenyl]-6,6-dimethyl-4,4-dioxo-5,6-dihydro-4H-4lambda6-[1,4,3]oxathiazin-2-ylamino}-propan-1-ol], the negative-log IC50 (pIC50) was 8.30.

As to `CC1(C)OC(N[C@@H](CCO)c2ccccc2F)=NS(=O)(=O)C1c1ccc(N2CCOCC2)cc1` (stereo partly drawn) [Example 107, (S)-3-[6,6-Dimethyl-5-(4-morpholin-4-yl-phenyl)-4,4-dioxo-5,6-dihydro-4H-4lambda6-[1,4,3]oxathiazin-2-ylamino]-3-(2-fluorophenyl)-propan-1-ol], the pIC50 was 7.48.

The compound `CC1(C)OC(N[C@@H](CCO)c2ccccc2F)=NS(=O)(=O)C1c1ccc(C2CCN(C3CC3)CC2)cc1` (stereo partly drawn) [Example 152, (S)-3-{5-[4-(1-Cyclopropyl-piperidin-4-yl)-phenyl]-6,6-dimethyl-4,4-dioxo-5,6-dihydro-4H-4lamda6-[1,4,3]oxathiazin-2-ylamino}-3-(2-fluorophenyl)-propan-1-ol] had a pIC50 of 7.59.

`CC1(C)OC(N[C@@H](CCO)c2ccccc2)=NS(=O)(=O)C1(C)c1cccc(-c2cncnc2)c1` (stereo partly drawn) [Compound 40, (S)-3-Phenyl-3-[5,6,6-trimethyl-4,4-dioxo-5-(3-pyrimidin-5-ylphenyl)-5,6-dihydro-4H-4lambda6-[1,4,3]oxathiazin-2-ylamino]propan-1-ol] had a pIC50 of 7.82.

In the case of `C[C@H](NC1=NS(=O)(=O)C(c2cccc(C(=O)N3CCCN(C)CC3)c2)C(C)(C)O1)c1ccccc1F` (stereo partly drawn) [Example 193, (3-{2-[(S)-1-(2-fluorophenyl)-ethylamino]-6,6-dimethyl-4,4-dioxo-5,6-dihydro-4H-4lambda6-[1,4,3]oxathiazin-5-yl}-phenyl)-(4-methyl-[1,4]diazepan-1-yl)-methanone], the negative logarithm of the IC50 (pIC50) was 6.32.

Compound `Cc1ccccc1C1C(C)(C)OC(N[C@@H](CCO)c2ccccc2)=NS1(=O)=O` (stereo partly drawn) [Example 16, (S)-3-(6,6-Dimethyl-4,4-dioxo-5-o-tolyl-5,6-dihydro-4H-4lambda6-[1,4,3]oxathiazin-2-ylamino)-3-phenyl-propan-1-ol] gave a pIC50 of 7.96.

Regarding `O=S1(=O)N=C(N[C@@H](CCO)c2ccccc2F)OC2(COC2)C1c1ccc(-c2ccccc2)cc1` (stereo partly drawn) [Example 76, (S)-3-(9-Biphenyl-4-yl-8,8-dioxo-2,5-dioxa-8lambda6-thia-7-aza-spiro[3.5]non-6-en-6-ylamino)-3-(2-fluorophenyl)-propan-1-ol], the pIC50 was 6.48.

Regarding `CN1CCC(c2ccc(C3C(C)(C)OC(N[C@@H](CCO)c4ccccc4F)=NS3(=O)=O)cc2)CC1` (stereo partly shown) [Example 103], the negative logarithm of the IC50 (pIC50) was 7.49.

As for `C[C@H](NC1=NS(=O)(=O)C(c2ccc(C3CCNCC3)cc2)C(C)(C)O1)c1ccccc1F` (stereo partly drawn) [Example 158, [6,6-Dimethyl-4,4-dioxo-5-(4-piperidin-4-yl-phenyl)-5,6-dihydro-4H-4lambda6-[1,4,3]oxathiazin-2-yl]-[(S)-1-(2-fluorophenyl)-ethyl]-amin], the negative logarithm of the IC50 (pIC50) was 7.42.

Regarding `CC1(C)OC(NC2CCCCC2)=NS(=O)(=O)C1c1ccccc1` (stereo not shown) [Example 1, Cyclohexyl-(6,6-dimethyl-4,4-dioxo-5-phenyl-5,6-dihydro-4H-4lambda6-[1,4,3]oxathiazin-2-yl)-amine], the pIC50 was 6.95.

`CC1(C)OC(N[C@@H](CCO)c2ccccc2)=NS(=O)(=O)C1c1cccc(O)c1` (stereo partly drawn) [Example 32, 3-[2-((S)-3-Hydroxy-1-phenyl-propylamino)-6,6-dimethyl-4,4-dioxo-5,6-dihydro-4H-4lambda6-[1,4,3]oxathiazin-5-yl]-phenol]: the negative-log IC50 (pIC50) was 7.62.

`CC1(C)OC(N[C@@H](CCO)c2ccccc2F)=NS(=O)(=O)C1c1ccc(-c2ccc(F)cc2)cc1` (stereo partly drawn) [Example 65, (S)-3-[5-(4′-Fluorobiphenyl-4-yl)-6,6-dimethyl-4,4-dioxo-5,6-dihydro-4H-4lambda6-[1,4,3]oxathiazin-2-ylamino]-3-(2-fluorophenyl)-propan-1-ol] gave a negative logarithm of the IC50 (pIC50) of 7.68.

Compound `CC(=O)c1ccc(C2C(C)(C)OC(N[C@@H](CCO)c3ccccc3F)=NS2(=O)=O)cc1` (stereo partly shown) [Example 144] gave a negative-log IC50 (pIC50) of 8.00.

Compound `CC1(C)OC(N[C@@H](CCO)c2ccccc2F)=NS(=O)(=O)C1c1ccc(N2CCN(CCC(F)(F)F)CC2)cc1` (mixture of isomers) [Example 131, (S)-3-(6,6-Dimethyl-4,4-dioxo-5-{4-[4-(3,3,3-trifluoropropyl)-piperazin-1-yl]-phenyl}-5,6-dihydro-4H-4lambda6-[1,4,3]oxathiazin-2-ylamino)-3-(2-fluorophenyl)-propan-1-ol] showed a pIC50 of 7.77.

The pIC50 is the IC50 on a negative log10 scale, so that one unit is a factor of ten. A higher pIC50 goes with a low IC50.

Values taken from patent US8895547B2, “Substituted phenyl-oxathiazine derivatives, method for producing them, drugs containing said compounds and the use thereof” (Sanofi, priority 2011, dated 2014).
